Experimental data published in publication PMC3268193 (British Journal of Pharmacology, 2012).
Residue numbers refer to the chain shown, from its start.

Key:
P2X7 receptor = settings: ref Fonfria et al., 2008; cited from earlier work
P2X1 Cys2(1-6) chimera = target: T1, P2X1 Cys2(1-6) chimera (Homo sapiens, UniProt P51575, A118P/A137L/A141G/A151Y/D154G/DEL120-123/E128S/F152Y/G124S/G131D/I144L/I161V/INS125RVHNAT/INS150P/K127L/K136E/K138D/K140L/K148R/N153Q/P134A/Q142N/R139M/S130A/T133V/T155P/V156S); test: Two-electrode voltage clamp, chimera P2X1 Cys2; format: cell-based; settings: P2X1 Cys2(1–6)
T1 sequence (P51575 with tags, fused parts or gaps A118P/DEL120-123/G124S/INS125RVHNAT/K127L/E128S/S130A/G131D/T133V/P134A/K136E/A137L/K138D/R139M/K140L/A141G/Q142N/I144L/K148R/INS150P/A151Y/F152Y/N153Q/D154G/T155P/V156S/I161V): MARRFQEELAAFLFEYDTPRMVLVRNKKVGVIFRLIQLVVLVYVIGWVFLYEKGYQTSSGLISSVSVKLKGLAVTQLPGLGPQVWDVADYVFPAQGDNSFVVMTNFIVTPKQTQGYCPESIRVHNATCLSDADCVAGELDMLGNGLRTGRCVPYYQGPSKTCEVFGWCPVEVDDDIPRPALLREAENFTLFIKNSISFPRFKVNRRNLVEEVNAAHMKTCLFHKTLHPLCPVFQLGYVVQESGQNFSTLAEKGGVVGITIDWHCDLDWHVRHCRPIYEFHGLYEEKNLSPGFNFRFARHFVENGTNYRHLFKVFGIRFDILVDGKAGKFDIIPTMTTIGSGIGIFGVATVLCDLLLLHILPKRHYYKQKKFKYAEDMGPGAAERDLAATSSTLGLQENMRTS

[1] = target: T2, P2X1 receptor mutant KAKRK → ELDML(5) (Homo sapiens, UniProt P51575, A137L/K136E/K138D/K140L/R139M); test: Two-electrode voltage clamp, P2X1 mutant X1-ELDML; format: cell-based
T2 sequence (P51575 1-399 K136E/A137L/K138D/R139M/K140L): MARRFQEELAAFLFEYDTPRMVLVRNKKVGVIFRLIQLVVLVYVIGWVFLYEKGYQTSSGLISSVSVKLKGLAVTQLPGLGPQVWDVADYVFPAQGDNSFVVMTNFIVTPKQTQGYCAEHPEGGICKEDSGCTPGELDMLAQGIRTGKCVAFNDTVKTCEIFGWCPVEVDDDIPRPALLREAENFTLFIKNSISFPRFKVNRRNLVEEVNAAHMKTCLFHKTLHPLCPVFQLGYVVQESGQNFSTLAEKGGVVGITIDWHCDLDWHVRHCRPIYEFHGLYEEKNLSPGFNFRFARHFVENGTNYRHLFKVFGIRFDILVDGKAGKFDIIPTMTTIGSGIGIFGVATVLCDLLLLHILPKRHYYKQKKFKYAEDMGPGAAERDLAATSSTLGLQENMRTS

[2] = target: T3, P2X1 receptor mutant KAKRK → EADRK(2) (Homo sapiens, UniProt P51575, K136E/K138D); test: Two-electrode voltage clamp, P2X1 mutant X1-EADRK; format: cell-based
T3 sequence (P51575 1-399 K136E/K138D): T2 sequence (P51575 1-399 K136E/A137L/K138D/R139M/K140L) with L137A, M139R, L140K

P2X1 Cys2(3-4) chimera = target: T4, P2X1 Cys2(3-4) chimera (Homo sapiens, UniProt P51575, A137L/A141G/I144L/K136E/K138D/K140L/K148R/P134A/Q142N/R139M/T133V); test: Two-electrode voltage clamp, chimera P2X1 Cys2; format: cell-based
T4 sequence (P51575 1-399 T133V/P134A/K136E/A137L/K138D/R139M/K140L/A141G/Q142N/I144L/K148R): T2 sequence (P51575 1-399 K136E/A137L/K138D/R139M/K140L) with T133V, P134A, A141G, Q142N, I144L, K148R

Reduction in NF449 sensitivity compared with P2X1 WT (P2X1 Cys2(1-6) chimera) | Hill slope of NF449 inhibition curve (P2X1 Cys2(1-6) chimera; vs EC90 ATP) | Reduction in NF449 sensitivity compared with WT P2X1 [1] | Extra decrease in NF449 sensitivity compared with the K138D mutant [2] | Decrease in NF449 sensitivity compared with P2X1 WT (P2X1 Cys2(3-4) chimera) | Compound | Effectiveness at guinea pig compared with rat and human P2X7 isoforms (P2X7 receptor)
 |  |  |  |  | Cc1ccc(C(=O)Nc2ccc(S(=O)(=O)O)c3cc(S(=O)(=O)O)cc(S(=O)(=O)O)c23)cc1NC(=O)c1cccc(NC(=O)Nc2cccc(C(=O)Nc3cc(C(=O)Nc4ccc(S(=O)(=O)O)c5cc(S(=O)(=O)O)cc(S(=O)(=O)O)c45)ccc3C)c2)c1 [suramin] | ~10 fold
~300 fold | 1.38 ± 0.07 | ~700 fold | ~15 fold | ~1700 fold | O=C(Nc1cc(C(=O)Nc2ccc(S(=O)(=O)O)cc2S(=O)(=O)O)cc(C(=O)Nc2ccc(S(=O)(=O)O)cc2S(=O)(=O)O)c1)Nc1cc(C(=O)Nc2ccc(S(=O)(=O)O)cc2S(=O)(=O)O)cc(C(=O)Nc2ccc(S(=O)(=O)O)cc2S(=O)(=O)O)c1 [NF449, 4,4′,4′′,4′′′-(carbonylbis(imino-5,1,3-benzenetriyl-bis(carbonylimino)))tetrakis-benzene-1,3-disulphonic acid] | 
